Reference: patent US20250360123A1, “METHODS AND COMPOSITIONS FOR TREATING INHERITED RETINAL DEGENERATION” (ONL Therapeutics, Inc., priority 2024, published 2025)

Experiments:
Type in all cases: in vivo, mouse
[1] = test system: Fas-Lpr/P23H mice; assay: TUNEL cell counts for photoreceptor death in retina; details: HCQ 1.2 mg/ml in drinking water from P21, versus untreated mice, FIG. 2B
Method: (§1) This study was conducted in the Lpr/P23H mouse line, a Fas-deficient mouse line that is also a model of retinitis pigmentosa. Hydroxychloroquine (HCQ) was given in the drinking water at 1.2 mg/ml starting at 21 days post-natal (P21) to reduce autophagy flux (FIG. 1). Photoreceptor death was assessed by Terminal deoxynucleotidyl transferase (TdT) dUTP Nick-End Labeling (TUNEL) cell counts. Retinal structure was examined by histology and optical coherence tomography (OCT) analysis. Electroretinogram (ERG) recording and immunohistochemistry (IHC) staining of rhodopsin and m-opsin were performed to evaluate the retinal function. Transcript levels of inflammatory cytokines, CCL-2 and CCL-3, were analyzed by rt-PCR.

[2] = test system: CCL-2; assay: Transcript level of inflammatory cytokine CCL-2 in retina by rt-PCR; details: Fas-Lpr/P23H mice, HCQ 1.2 mg/ml in drinking water from P21, versus untreated mice
Method: as §1

[3] = test system: CCL-3; assay: Transcript level of inflammatory cytokine CCL-3 in retina by rt-PCR; details: Fas-Lpr/P23H mice, HCQ 1.2 mg/ml in drinking water from P21, versus untreated mice
Method: as §1

[4] = test system: Fas-Lpr/P23H mice; assay: ONL thickness by optical coherence tomography (OCT), Fas-deficient retinitis pigmentosa model; details: 3- and 4-months old, OCT at 250 and 500 μm from the optic nerve, inferior and superior retina, HCQ in drinking water versus untreated
Method: as §1
A proxy for retinal cell death is […] (ONL) thickness, with thicker ONLs correlating to less cell death.

[5] = test system: Fas-Lpr/P23H mice; assay: Retinal histology and IHC staining (DAPI, m-opsin, rhodopsin); details: HCQ versus untreated
Method: as §1

[6] = test system: Fas-Lpr/P23H mice; assay: Electroretinogram (ERG) recording, Fas-deficient retinitis pigmentosa model; details: 3-month and 4-month old Fas-LPR/P23H mice; HCQ versus untreated
Method: as §1
Photoreceptor function was assessed using electroretinograms (ERGs).

## CCN(CCO)CCCC(C)Nc1ccnc2cc(Cl)ccc12 (centres unmarked) [HCQ, Hydroxychloroquine]
[1]
  TUNEL-positive cell counts in the retina: statistically significantly fewer
[2]
  production of inflammatory cytokine CCL-2: lowered production
[3]
  production of inflammatory cytokine CCL-3: lowered production
[4]
  optic nerve layer (ONL) thickness: significantly greater ONL thickness
[5]; 3-month and 4-month old Fas-LPR/P23H mice, FIG. 6
  photoreceptor survival (histological images): greater photoreceptor survival
[5]; 3-month and 4-month old Fas-Lpr/P23H mice, FIG. 7A, 7B
  survival of cell bodies (DAPI), cones (m-opsin) and rods (rhodopsin), IHC images: greater survival of cell bodies, cones, and rods
[6]
  scotopic ERG a-wave amplitude: significantly greater amplitude
  scotopic ERG b-wave amplitude: significantly greater amplitude
